{"source": "patent US11766468B2", "about": "“Method of treating prostate cancer with GnRH antagonist” (priority 2012, dated 2023)", "assay": "CS21 safety: treatment-emergent adverse events (MedDRA SOC/PT), crude incidence, also by subgroup", "type": "in vivo", "description": "The safety variables for this study were assessed on the following: the frequency and severity of adverse events (AEs); the presence of clinically significant changes in laboratory parameters (clinical chemistry, hematology and urinalysis); changes in electrocardiograms (ECGs) and vital signs; changes detected by physical examination; and body weight.\nAn AE was therefore any unfavorable or unintended sign (including an abnormal laboratory finding), symptom or disease temporally associated with the use of the product, whether or not related to the IMP.\nAn adverse drug reaction (ADR) was defined as an AE evaluated by the investigator as being probably or possibly related to treatment with the IMP.\nAEs were graded according to the National Cancer Institute (NCI) Common Terminology Criteria for Adverse Events (CTCAE). In accordance with the CTCAE criteria, AEs were rated on a five-point scale corresponding to mild, moderate, severe, life-threatening or disabling and death. For those AEs not described in the CTCAE, a separate five-point rating scale was used for rating of the intensity of AEs as follows below:\nSafety parameters were evaluated for all patients included in the ITT analysis set, comprising all 610 randomized patients who received at least one dose of study medication. All safety tables include four columns: the three treatment groups described separately, and the pooled degarelix group.\nAdverse events were regarded as ‘treatment-emergent’ if they occurred in the time interval from initial dosing to end-of-study. Adverse events were considered ‘pre-treatment’ if they occurred between screening and the initial injections of IMP. As described above, all AEs were classified according to MedDRA (version 10.0) system organ class (SOC), sorted alphabetically, and by preferred term (PT), in decreasing frequency of occurrence. Treatment-emergent AEs were expressed in terms of intensity (using NCI CTCAE) and relationship to study drug.\nUsing the results from the summary of clinical efficacy (SCE) and summary of clinical safety (SCS) findings, different patient subgroups were analyzed. Subgroup distinguishers included race (white, black, and other), age (<65 years, […], and >75 years), weight (<70 kg, ≥70−<90 kg, and ≥90 kg), body mass index (BMI) (≤20, >20 to 30, and >30 kg/m^2)), region (North-America, Western Europe, Central and Eastern Europe and Other), and stage of prostate cancer (e.g., localized, locally advanced, and metastatic).", "key": {"[1]": {"settings": "degarelix 240/80 mg, listed as degarelix"}}, "note": "Square brackets hold non-standard residues; d marks the D form. Peptide text beside a SMILES is read from it. * marks the point of attachment. dPhe(4-NHCONH2) = NC(=O)Nc1ccc(C[C@@H](N)C(=O)O)cc1; Dihydroorotyl(S) = O=C1C[C@@H](C(=O)*)NC(=O)N1; dPhe(4-Cl) = N[C@H](Cc1ccc(Cl)cc1)C(=O)O; Phe(4-NH2) = Nc1ccc(C[C@H](N)C(=O)O)cc1; d2Nal = N[C@H](Cc1ccc2ccccc2c1)C(=O)O; Lys(iPr) = CC(C)NCCCC[C@H](N)C(=O)O; d3Pal = N[C@H](Cc1cccnc1)C(=O)O", "data": [{"smiles": "CC(=O)N[C@H](Cc1ccc2ccccc2c1)C(=O)N[C@H](Cc1ccc(Cl)cc1)C(=O)N[C@H](Cc1cccnc1)C(=O)N[C@@H](CO)C(=O)N[C@@H](Cc1ccc(NC(=O)[C@@H]2CC(=O)NC(=O)N2)cc1)C(=O)N[C@H](Cc1ccc(NC(N)=O)cc1)C(=O)N[C@@H](CC(C)C)C(=O)N[C@@H](CCCCNC(C)C)C(=O)N1CCC[C@H]1C(=O)N[C@H](C)C(N)=O", "note": "[Degarelix, D-Alaninamide, N-acetyl-3-(2-naphthalenyl)-D-alanyl-4-chloro-D-phenylalanyl-3-(3-pyridinyl)-D-alanyl-L-seryl-4-[[[(4S)-hexahydro-2,6-dioxo-4-pyrimidinyl]carbonyl]amino]-L phenylalanyl-4-[(aminocarbonyl)amino]-D-phenylalanyl-L leucyl-N6-(1-methylethyl)-L-lysyl-L-prolyl] (Ac-[d2Nal][dPhe(4-Cl)][d3Pal]S[Phe(4-NH2)](Dihydroorotyl(S))[dPhe(4-NHCONH2)]L[Lys(iPr)]P[dA]-NH2)", "values": [{"measurement": "ADRs, % of patients", "setting": "degarelix 240/80 mg", "value": 57, "unit": "%"}, {"measurement": "ADRs, E events", "setting": "degarelix 240/80 mg", "value": 459}, {"measurement": "ADRs, N patients", "setting": "degarelix 240/80 mg", "value": 118}, {"measurement": "AEs leading to discontinuation, % of patients", "setting": "degarelix 240/80 mg", "value": 7, "unit": "%"}, {"measurement": "AEs leading to discontinuation, E events", "setting": "degarelix 240/80 mg", "value": 15}, {"measurement": "AEs leading to discontinuation, N patients", "setting": "degarelix 240/80 mg", "value": 15}, {"measurement": "Alanine aminotransferase increased, % of patients", "setting": "degarelix 240/80 mg", "value": "(10%)"}, {"measurement": "All AEs, E = number of adverse events", "setting": "degarelix 240/80 mg", "value": 937}, {"measurement": "All AEs, N = number of patients", "setting": "degarelix 240/80 mg", "value": 163}, {"measurement": "Arthralgia, % of patients", "setting": "degarelix 240/80 mg", "value": "( 5%)"}, {"measurement": "Aspartate aminotransferase increased, % of patients", "setting": "degarelix 240/80 mg", "value": "( 5%)"}, {"measurement": "Back pain, % of patients", "setting": "degarelix 240/80 mg", "value": "( 6%)"}, {"measurement": "Blood & lymphatic system disorders, % of patients", "setting": "degarelix 240/80 mg", "value": "( 2%)"}, {"measurement": "Cardiac disorders, % of patients", "setting": "degarelix 240/80 mg", "value": "( 8%)"}, {"measurement": "Chills, % of patients", "setting": "degarelix 240/80 mg", "value": "( 5%)"}, {"measurement": "Constipation, % of patients", "setting": "degarelix 240/80 mg", "value": "( 5%)"}, {"measurement": "Deaths (Grade 5), % of patients", "setting": "degarelix 240/80 mg", "value": 2, "unit": "%"}, {"measurement": "Deaths (Grade 5), E events", "setting": "degarelix 240/80 mg", "value": 5}, {"measurement": "Deaths (Grade 5), N patients", "setting": "degarelix 240/80 mg", "value": 5}, {"measurement": "Ear & labyrinth disorders, % of patients", "setting": "degarelix 240/80 mg", "value": "( 3%)"}, {"measurement": "Endocrine disorders, % of patients", "setting": "degarelix 240/80 mg", "value": "(<1%)"}, {"measurement": "Eye disorders, % of patients", "setting": "degarelix 240/80 mg", "value": "( 3%)"}, {"measurement": "Fatigue, % of patients", "setting": "degarelix 240/80 mg", "value": "( 3%)"}, {"measurement": "Gastrointestinal disorders, % of patients", "setting": "degarelix 240/80 mg", "value": "(18%)"}, {"measurement": "General disorders & administration site conditions, % of patients", "setting": "degarelix 240/80 mg", "value": "(44%)"}, {"measurement": "Hepatobiliary disorders, % of patients", "setting": "degarelix 240/80 mg", "value": "(<1%)"}, {"measurement": "Hot flush, % of patients", "setting": "degarelix 240/80 mg", "value": "(26%)"}, {"measurement": "Hypercholesterolaemia, % of patients", "setting": "degarelix 240/80 mg", "value": "( 3%)"}, {"measurement": "Hypertension, % of patients", "setting": "degarelix 240/80 mg", "value": "( 6%)"}, {"measurement": "Immune system disorders, % of patients", "setting": "degarelix 240/80 mg", "value": "(<1%)"}, {"measurement": "Infections & infestations, % of patients", "setting": "degarelix 240/80 mg", "value": "(22%)"}, {"measurement": "Injection site erythema, % of patients", "setting": "degarelix 240/80 mg", "value": "(17%)"}, {"measurement": "Injection site induration, % of patients", "setting": "degarelix 240/80 mg", "value": "( 4%)"}, {"measurement": "Injection site nodule, % of patients", "setting": "degarelix 240/80 mg", "value": "( 3%)"}, {"measurement": "Injection site pain, % of patients", "setting": "degarelix 240/80 mg", "value": "(28%)"}, {"measurement": "Injection site swelling, % of patients", "setting": "degarelix 240/80 mg", "value": "( 6%)"}, {"measurement": "Injury, poisoning & procedural complications, % of patients", "setting": "degarelix 240/80 mg", "value": "( 5%)"}, {"measurement": "Investigations, % of patients", "setting": "degarelix 240/80 mg", "value": "(26%)"}, {"measurement": "Metabolism & nutrition disorders, % of patients", "setting": "degarelix 240/80 mg", "value": "( 7%)"}, {"measurement": "Musculoskeletal & connective tissue disorders, % of patients", "setting": "degarelix 240/80 mg", "value": "(15%)"}, {"measurement": "Nausea, % of patients", "setting": "degarelix 240/80 mg", "value": "( 4%)"}, {"measurement": "Neoplasms benign, malignant & unspecified, % of patients", "setting": "degarelix 240/80 mg", "value": "( 5%)"}, {"measurement": "Nervous system disorders, % of patients", "setting": "degarelix 240/80 mg", "value": "(12%)"}, {"measurement": "Psychiatric disorders, % of patients", "setting": "degarelix 240/80 mg", "value": "( 8%)"}, {"measurement": "Renal & urinary disorders, % of patients", "setting": "degarelix 240/80 mg", "value": "(14%)"}, {"measurement": "Reproductive system & breast disorders, % of patients", "setting": "degarelix 240/80 mg", "value": "( 4%)"}, {"measurement": "Respiratory, thoracic & mediastinal disorders, % of patients", "setting": "degarelix 240/80 mg", "value": "(12%)"}, {"measurement": "Serious AEs, % of patients", "setting": "degarelix 240/80 mg", "value": 10, "unit": "%"}, {"measurement": "Serious AEs, E events", "setting": "degarelix 240/80 mg", "value": 26}, {"measurement": "Serious AEs, N patients", "setting": "degarelix 240/80 mg", "value": 21}, {"measurement": "Skin & subcutaneous tissue disorders, % of patients", "setting": "degarelix 240/80 mg", "value": "( 9%)"}, {"measurement": "Urinary tract infection, % of patients", "setting": "degarelix 240/80 mg", "value": "( 5%)"}, {"measurement": "Vascular disorders, % of patients", "setting": "degarelix 240/80 mg", "value": "(34%)"}, {"measurement": "Weight increased, % of patients", "setting": "degarelix 240/80 mg", "value": "( 9%)"}, {"measurement": "Injection site adverse events, % of subjects", "setting": "degarelix 240/80 mg s.c., leuprolide 7.5 mg i.m.", "value": 35, "unit": "%"}, {"measurement": "ADRs excluding injection site reactions, % of patients", "setting": "degarelix 240/80 mg, leuprolide 7.5 mg", "value": 43, "unit": "%"}, {"measurement": "Arthralgia, % of patients", "setting": "[1]", "value": 5, "unit": "%"}, {"measurement": "Back pain, % of patients", "setting": "[1]", "value": 6, "unit": "%"}, {"measurement": "Chills, % of patients", "setting": "[1]", "value": 5, "unit": "%"}, {"measurement": "Constipation, % of patients", "setting": "[1]", "value": 5, "unit": "%"}, {"measurement": "Fatigue, % of patients", "setting": "[1]", "value": 3, "unit": "%"}, {"measurement": "Hot flush, % of patients", "setting": "[1]", "value": 26, "unit": "%"}, {"measurement": "Hypertension, % of patients", "setting": "[1]", "value": 6, "unit": "%"}, {"measurement": "Injection site erythema, % of patients", "setting": "[1]", "value": 17, "unit": "%"}, {"measurement": "Injection site induration, % of patients", "setting": "[1]", "value": 4, "unit": "%"}, {"measurement": "Injection site nodule, % of patients", "setting": "[1]", "value": 3, "unit": "%"}, {"measurement": "Injection site pain, % of patients", "setting": "[1]", "value": 28, "unit": "%"}, {"measurement": "Injection site swelling, % of patients", "setting": "[1]", "value": 6, "unit": "%"}, {"measurement": "Musculoskeletal & connective tissue disorders, % of patients", "setting": "[1]", "value": 15, "unit": "%"}, {"measurement": "Treatment-emergent adverse events (all AEs), % of patients", "setting": "[1]", "value": 79, "unit": "%"}, {"measurement": "Urinary tract infection, % of patients", "setting": "[1]", "value": 5, "unit": "%"}, {"measurement": "Weight increased, % of patients", "setting": "[1]", "value": 9, "unit": "%"}, {"measurement": "ADRs excluding injection site reactions, % of patients", "setting": "degarelix 240/160 mg", "value": 44, "unit": "%"}, {"measurement": "ADRs, % of patients", "setting": "degarelix 240/160 mg", "value": 59, "unit": "%"}, {"measurement": "ADRs, E events", "setting": "degarelix 240/160 mg", "value": 463}, {"measurement": "ADRs, N patients", "setting": "degarelix 240/160 mg", "value": 120}]}]}
